Earlier results on two compounds are cited in patent US20240122858A1, “MODIFIED-RELEASE DOSAGE FORMS OF RUXOLITINIB” (SLAYBACK PHARMA LLC, priority 2021, published 2024).

Consider `N#CC[C@H](C1CCCC1)n1cc(-c2ncnc3[nH]ccc23)cn1` [Ruxolitinib], for which the “solubility in aqueous buffers” value (free base) is “sparingly soluble”.

Take `N#CC[C@H](C1CCCC1)n1cc(-c2ncnc3[nH]ccc23)cn1` [Ruxolitinib phosphate, (3R)-3-cyclopentyl-3-[4-(7H-pyrrolo[2,3-d]-pyrimidin-4-yl)-pyrazol-1-yl]-propanenitrile phosphate]: the permeability result is “high permeability”. Also, the aqueous solubility result (over a pH range of 1-8) was “high aqueous solubility”.
